Data reported in US5663331A, “Cephalosporin compounds” (Il-Dong Pharm. Co., Ltd., priority 1992, dated 1997).
Values after ≈ are worked out from the molar mass of the structure shown. Each block holds one compound with its values, some of them ahead of it.

Assays:
Type in all cases: cell-based
[1] = tested on: Staphylococcus epidermidis ATCC 12228; assay: MIC, two-fold dilution method, Staphylococcus epidermidis ATCC 12228; settings: 10^6 CFU per ml, 37° C., 18 to 20 hours; for Antibacterial Activity (MIC): Muller Hinton Broth; for MIC: ATCC12228, Muller Hinton Broth, read-out: Antibacterial Activity (MIC)
Experimental: (§1) In order to illustrate the usefulness of the invented compounds, the minimal inhibitory concentrations-(MIC) thereof against standard strains were determined and compared with Cefotaxime, a known compound. Also, the in vitro antibacterial activity was determined by a two-fold dilution method as described below: That is, the two-fold serial dilutions of the compound were made and dispersed in Muller Hinton Broth medium. Standard test strain which had the 10^6 CFU per ml was inoculated on the medium, and was incubated at 37° C. for 18 to 20 hours.

[2] = tested on: Bacillus subtilis ATCC 6633; assay: MIC, two-fold dilution method, Bacillus subtilis ATCC 6633; settings: 10^6 CFU per ml, 37° C., 18 to 20 hours; for Antibacterial Activity (MIC): Muller Hinton Broth; for MIC: ATCC6633, Muller Hinton Broth, read-out: Antibacterial Activity (MIC)
Experimental: as §1

[3] = tested on: Klebsiella pneumoniae ATCC 10031; assay: MIC, two-fold dilution method, Klebsiella pneumoniae ATCC 10031; settings: 10^6 CFU per ml, 37° C., 18 to 20 hours; for Antibacterial Activity (MIC): Muller Hinton Broth; for MIC: ATCC10031, Muller Hinton Broth, read-out: Antibacterial Activity (MIC)
Experimental: as §1

[4] = tested on: Streptococcus faecalis ATCC 10541; assay: MIC, two-fold dilution method, Streptococcus faecalis ATCC 10541; settings: 10^6 CFU per ml, 37° C., 18 to 20 hours; for Antibacterial Activity (MIC): Muller Hinton Broth; for MIC: Enterococcus faecalis, ATCC10541, Muller Hinton Broth, read-out: Antibacterial Activity (MIC)
Experimental: as §1

[5] = tested on: Esherichia coli ATCC 25922; assay: MIC, two-fold dilution method, Esherichia coli ATCC 25922; settings: Muller Hinton Broth, 10^6 CFU per ml, 37° C., 18 to 20 hours; for MIC: read-out: Antibacterial Activity (MIC)
Experimental: as §1

[6] = tested on: Staphylococcus aureus ATCC 65389; assay: MIC, two-fold dilution method, Staphylococcus aureus ATCC 65389; settings: 10^6 CFU per ml, 37° C., 18 to 20 hours; for Antibacterial Activity (MIC): Muller Hinton Broth; for MIC: ATCC65389, Muller Hinton Broth, read-out: Antibacterial Activity (MIC)
Experimental: as §1

[7] = tested on: Pseudomonas aeurginosa NCTC 10490; assay: MIC, two-fold dilution method, Pseudomonas aeurginosa NCTC 10490; settings: 10^6 CFU per ml, 37° C., 18 to 20 hours; for Antibacterial Activity (MIC): Muller Hinton Broth; for MIC: NCTC10490, Muller Hinton Broth, read-out: Antibacterial Activity (MIC)
Experimental: as §1

SMILES: C=CCO/N=C(\C(=O)NC1C(=O)N2C(C(=O)[O-])=C(CSc3cc[n+](CC)c4cc(N5CCNCC5C)c(F)cc34)CS[C@H]12)c1csc(N)n1 (some centres unmarked) [Compound I-32, 7-[(Z)-2-(2-aminothiazol-4-yl)-2-(allyloxyimino)acetamido]-3-[1-ethyl-6-fluoro-7-(2-methylpiperazinyl)quinolinium-4-yl]thiomethyl-3-cephem-4-carboxylate]
Antibacterial Activity (MIC) [1]: 0.78 mg/L | Antibacterial Activity (MIC) [2]: 0.39 mg/L | Antibacterial Activity (MIC) [3]: 0.39 mg/L | Antibacterial Activity (MIC) [4]: 0.39 mg/L | Antibacterial Activity (MIC) [5]: 0.78 mg/L | Antibacterial Activity (MIC) [6]: 0.39 mg/L | Antibacterial Activity (MIC) [7]: 1.56 mg/L

SMILES: C=CCO/N=C(\C(=O)NC1C(=O)N2C(C(=O)[O-])=C(CSc3cc[n+](CC=C)c4cc(N5CCNCC5)c(F)cc34)CS[C@H]12)c1csc(N)n1 (some centres unmarked) [Compound I-33, 7-[(Z)-2-(2-aminothiazol-4-yl)-2-(allyloxyimino)acetamido]-3-(1-allyl-6-fluoro-7-piperazinylquinolinium-4-yl)thiomethyl-3-cephem-4-carboxylate]
MIC [1]: 1.56 mg/L (≈ 2.15 µM) | MIC [2]: 0.78 mg/L (≈ 1.08 µM) | MIC [3]: 1.56 mg/L (≈ 2.15 µM) | MIC [4]: 0.39 mg/L (≈ 0.538 µM) | MIC [5]: 3.13 mg/L (≈ 4.32 µM) | MIC [6]: 0.78 mg/L (≈ 1.08 µM) | MIC [7]: 3.13 mg/L (≈ 4.32 µM)

SMILES: C=CCO/N=C(\C(=O)NC1C(=O)N2C(C(=O)[O-])=C(CSc3cc[n+](CC=C)c4cc(N5CCN(C)CC5)c(F)cc34)CSC12)c1csc(N)n1 (centres unmarked) [Compound I-34, 7-[(Z)-2-(2-aminothiazol-4-yl)-2-(allyloxyimino)acetamido]-3-[1-allyl-6-fluoro-7-(N-methylpiperazinyl)quinolinium-4-yl]thiomethyl-3-cephem-4-carboxylate]
MIC [1]: 1.56 mg/L (≈ 2.11 µM) | MIC [2]: 0.78 mg/L (≈ 1.06 µM) | MIC [3]: 1.56 mg/L (≈ 2.11 µM) | MIC [4]: 0.78 mg/L (≈ 1.06 µM) | MIC [5]: 3.13 mg/L (≈ 4.24 µM) | MIC [6]: 1.56 mg/L (≈ 2.11 µM) | MIC [7]: 6.25 mg/L (≈ 8.46 µM)

SMILES: C=CCO/N=C(\C(=O)NC1C(=O)N2C(C(=O)[O-])=C(CSc3cc[n+](CC=C)c4cc(N5CCNCC5C)c(F)cc34)CS[C@H]12)c1csc(N)n1 (some centres unmarked) [Compound I-36, 7-[(Z)-2-(2-aminothiazol-4-yl)-2-(allyloxyimino)acetamido]-3-[1-allyl-6-fluoro-7-(2-methylpiperazinyl)quinolinium-4-yl]thiomethyl-3-cephem4-carboxylate]
Antibacterial Activity (MIC) [1]: 1.56 mg/L | Antibacterial Activity (MIC) [2]: 0.39 mg/L | Antibacterial Activity (MIC) [3]: 0.78 mg/L | Antibacterial Activity (MIC) [4]: 0.39 mg/L | Antibacterial Activity (MIC) [5]: 1.56 mg/L | Antibacterial Activity (MIC) [6]: 0.78 mg/L | Antibacterial Activity (MIC) [7]: 1.56 mg/L

Further compounds by falling MIC [1], results first:

MIC [1]: 0.78 mg/L (≈ 1.04 µM) | MIC [2]: 0.39 mg/L (≈ 0.518 µM) | MIC [3]: 0.78 mg/L (≈ 1.04 µM) | MIC [4]: 0.39 mg/L (≈ 0.518 µM) | MIC [5]: 1.56 mg/L (≈ 2.07 µM) | MIC [6]: 0.78 mg/L (≈ 1.04 µM) | MIC [7]: 0.78 mg/L (≈ 1.04 µM)
SMILES: C=CCO/N=C(\C(=O)NC1C(=O)N2C(C(=O)[O-])=C(CSc3cc[n+](CC=C)c4cc(N5CCN(CC)CC5)c(F)cc34)CSC12)c1csc(N)n1 (centres unmarked) [Compound I-35, 7-[(Z)-2-(2-aminothiazol-4-yl)-2-(allyloxyimino)acetamido]-3-[1-allyl-6-fluoro-7-(1-ethylpiperazinyl)quinolinium-4-yl]thiomethyl-3-cephem-4-carboxylate]

MIC [1]: 0.78 mg/L (≈ 1.08 µM) | MIC [2]: 0.2 mg/L (≈ 0.277 µM) | MIC [3]: 6.25 mg/L (≈ 8.65 µM) | MIC [4]: 0.39 mg/L (≈ 0.54 µM) | MIC [5]: 3.13 mg/L (≈ 4.33 µM) | MIC [6]: 0.78 mg/L (≈ 1.08 µM) | MIC [7]: 3.13 mg/L (≈ 4.33 µM)
SMILES: C#CCO/N=C(\C(=O)NC1C(=O)N2C(C(=O)[O-])=C(CSc3cc[n+](C4CC4)c4cc(N5CCNCC5)c(F)cc34)CS[C@H]12)c1csc(N)n1 (some centres unmarked) [Compound I-41, 7-[(Z)-2-(2-aminothiazol-4-yl)-2-(propargyloxyimino)acetamido]-3-(1-cyclopropyl-6-fluoro-7-piperazinylquinolinium-4-yl)thiomethyl-3-cephem-4-carboxylate]

MIC [1]: 0.78 mg/L (≈ 1.06 µM) | MIC [2]: 0.2 mg/L (≈ 0.271 µM) | MIC [3]: 3.13 mg/L (≈ 4.25 µM) | MIC [4]: 0.39 mg/L (≈ 0.529 µM) | MIC [5]: 3.13 mg/L (≈ 4.25 µM) | MIC [6]: 0.78 mg/L (≈ 1.06 µM) | MIC [7]: 3.13 mg/L (≈ 4.25 µM)
SMILES: C#CCO/N=C(\C(=O)NC1C(=O)N2C(C(=O)[O-])=C(CSc3cc[n+](C4CC4)c4cc(N5CCN(C)CC5)c(F)cc34)CSC12)c1csc(N)n1 (centres unmarked) [Compound I-42, 7-[(Z)-2-(2-aminothiazol-4-yl)-2-(propargyloxyimino)acetamido]-3-[1-cyclopropyl-6-fluoro-7-(N-methylpiperazinyl)quinolinium-4-yl]thiomethyl-3-cephem-4-carboxylate]

MIC [1]: 0.1 mg/L (≈ 0.133 µM) | MIC [2]: 0.1 mg/L (≈ 0.133 µM) | MIC [3]: 0.78 mg/L (≈ 1.04 µM) | MIC [4]: 0.05 mg/L (≈ 0.0666 µM) | MIC [5]: 1.56 mg/L (≈ 2.08 µM) | MIC [6]: 0.1 mg/L (≈ 0.133 µM) | MIC [7]: 0.78 mg/L (≈ 1.04 µM)
SMILES: C#CCO/N=C(\C(=O)NC1C(=O)N2C(C(=O)[O-])=C(CSc3cc[n+](C4CC4)c4cc(N5CCN(CC)CC5)c(F)cc34)CSC12)c1csc(N)n1 (centres unmarked) [Compound I-43]
